Literature values as cited in patent US7494643B2, “Method and topical composition for the treatment of hyperpigmented skin” (priority 2003, dated 2009).

How the values were obtained:
[1] = tested on: cultured pigment cells; details: cited from earlier work
[2] = tested on: tyrosinase isolated from black goldfish and standard goldfish; details: cited from earlier work
[3] = tested on: black goldfish; details: ingested by the fish; cited from earlier work
[4] = tested on: mushroom-tyrosinases; details: competitive inhibition; cited from earlier work
[5] = target: T1, human-tyrosinase (Homo sapiens, UniProt P14679); details: competitive inhibition; cited from earlier work
T1 sequence (P14679 19-529): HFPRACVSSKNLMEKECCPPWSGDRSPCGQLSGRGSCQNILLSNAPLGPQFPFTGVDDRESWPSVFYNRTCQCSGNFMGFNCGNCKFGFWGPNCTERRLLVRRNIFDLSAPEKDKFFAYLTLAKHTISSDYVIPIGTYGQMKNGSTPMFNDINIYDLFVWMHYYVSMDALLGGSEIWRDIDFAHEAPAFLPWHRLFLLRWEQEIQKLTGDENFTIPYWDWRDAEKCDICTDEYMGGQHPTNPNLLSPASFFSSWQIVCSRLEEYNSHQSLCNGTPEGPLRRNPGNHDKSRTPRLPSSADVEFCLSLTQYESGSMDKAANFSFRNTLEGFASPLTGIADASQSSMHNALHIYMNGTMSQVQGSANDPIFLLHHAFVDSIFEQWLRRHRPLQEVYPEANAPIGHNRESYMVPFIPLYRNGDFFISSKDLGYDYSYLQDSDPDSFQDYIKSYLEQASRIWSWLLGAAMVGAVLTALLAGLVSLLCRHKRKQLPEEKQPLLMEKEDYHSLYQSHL

[6] = tested on: HIV; details: NCI primary screen; cited from earlier work
[7] = tested on: melanocytes; details: cited from earlier work

O=c1cc(CO)occ1O [Kojic acid]
suppression of melanogenesis [1]: suppress melanogenesis | inhibition of tyrosinase [2]: inhibit tyrosinase | colour of black goldfish after ingestion [3]: almost yellow-brown

OC[C@H]1O[C@@H](Oc2ccc(O)cc2)[C@H](O)[C@@H](O)[C@@H]1O [Arbutin]
inhibition of enzyme activity of mushroom tyrosinase [4]: inhibits enzyme activity | inhibition of enzyme activity of human tyrosinase [5]: inhibits enzyme activity

Vismiaphenone D
HIV-inhibitory activity [6]: HIV-inhibitory activity

Oc1ccc(O)cc1 [hydroquinone]
cytotoxicity (destroys the cellular walls of the melanocytes) [7]: cytotoxic
